The values that follow are results of earlier work, collected in article PMC5810560 (Chemico-biological interactions, 2017).

Structures are written as SMILES.

For the data set the following is noted: rats, brain homogenates, 50 μmol IM exposure; ref Petroianu et al., 2007; cited from earlier work.

As for `C[n+]1ccccc1/C=N/O` [2-PAM, pralidoxime chloride], the brain/plasma ratio was 0.056.
